Measurements: BindingDB's records for doi:10.1021/jm00104a010 (University of Illinois At Chicago, 1992)

Molecular target: Reverse transcriptase (Human immunodeficiency virus 2)
Assay: Inhibition of purified HIV-2 reverse transcriptase

IC50 [µM] | Compound
452 | Nc1c(S(=O)(=O)O)cc2cc(S(=O)(=O)O)cc(O)c2c1O
478 | O=C(O)c1cc(NS(=O)(=O)c2ccc(-c3ccc(S(=O)(=O)Nc4cc(C(=O)O)c(O)c(S(=O)(=O)O)c4)cc3)cc2)cc(S(=O)(=O)O)c1O
170 | O=C(O)CCCCCCCCC(=O)Nc1cc(S(=O)(=O)O)cc2cc(S(=O)(=O)O)cc(O)c12
122 | O=C(CCCCCCCCC(=O)Nc1cc(S(=O)(=O)O)cc2cc(S(=O)(=O)O)cc(O)c12)Nc1cc(S(=O)(=O)O)cc2cc(S(=O)(=O)O)cc(O)c12
